Some targets named below: KPC-2 (Klebsiella pneumoniae, UniProt Q9F663); OXA-11 (Pseudomonas aeruginosa, UniProt Q06778); OXA-1 (Escherichia coli, UniProt P13661); CTX-M-15 (Escherichia coli, UniProt Q9EXV5); SHV-1 (Klebsiella pneumoniae, UniProt P0AD64); TEM-1 (Escherichia coli, UniProt P62593); OXA-48 (Klebsiella pneumoniae, UniProt Q6XEC0).
The next assay addresses AmpC (P99) (Enterobacter cloacae, UniProt P05364). Description: biochemical.
For another assay, the target named is CMY-37 (Citrobacter freundii, UniProt P05193). The settings on record: read-out: IC50 β-lactamase CMY-37.
A further assay relates to K. pneumoniae BAA-1898. The experiment in a line: MIC of compound alone, broth microdilution. The format is cell-based. Particulars: Klebsiella pneumoniae, BAA1898; strain BAA-1898; compound alone; read-out: MIC compounds of the invention alone. In a few lines: (§1)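 Growth inhibition was scored by eye after 16-20 h at 35° C (room air), with bacteria from log phase seeded at 5×10^5 cfu/mL final in cation-adjusted Mueller-Hinton medium.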

The subject of a further assay is K. pneumoniae 6299. The experiment in a line: MIC of compound alone, broth microdilution. The format is cell-based. Particulars: Klebsiella pneumoniae; strain 6299; compound alone; read-out: MIC compounds of the invention alone. In a few lines: as §1
(Dilution methods test growth across graded concentrations, often in twofold steps.)

The test system of another assay is E. coli 190317. The experiment in a line: MIC of compound alone, broth microdilution. The class given is cell-based. Particulars: Escherichia coli; strain 190317; compound alone; read-out: MIC compounds of the invention alone. In a few lines:
as §1

The test system of a further assay is E. cloacae P99. Description: MIC of compound alone, broth microdilution. The settings on record: Enterobacter cloacae; strain P99; compound alone; read-out: MIC compounds of the invention alone. The class given is cell-based. In a few lines: as §1
The next assay has as its system P. aeruginosa CIP107051. The experiment in a line: MIC of compound alone, broth microdilution. Particulars: Pseudomonas aeruginosa; strain CIP107051; compound alone; read-out: MIC compounds of the invention alone. The format is cell-based. An outline of the steps: as §1
A further assay deals with AmpC (PAE) (Pseudomonas aeruginosa, UniProt P24735). The experiment in a line: biochemical.
For a further assay, the target named is OXA-15 (Pseudomonas aeruginosa, UniProt Q51574). The experiment in a line: biochemical.
Setting [1] is: class (C), nitrocefin 200 μM, 30-min pre-incubation, enzyme 0.2 nM.

Molecules are shown by their SMILES. pIC50: −log10 of the molar value. Where a name gives a salt, the structure may show the parent alone. Read-outs that look alike come from different tables or passages of the source.

By pIC50 is commonly meant −log10 of the IC50, conventionally taken in molar units. For orientation: MIC means the smallest concentration in the dilution series that meets the test's criterion for growth inhibition. For the molecule `O=C(NCCO)c1ccn(C2=CC3CN(C2)C(=O)N3OS(=O)(=O)[O-])n1.[Na+]` (stereo not drawn) [Example 11, sodium [3-[3-(2-hydroxyethylcarbamoyl)pyrazol-1-yl]-7-oxo-1,6-diazabicyclo[3.2.1]oct-3-en-6-yl]sulfate], the pIC50 against AmpC (P99) is 7.57; on KPC-2, 7.92; at CMY-37 it was 7.28; against OXA-11, 7.68; against OXA-1 it was 7.02; on AmpC (PAE), 6.37. Also, the pIC50 on CTX-M-15 was 8.85; on SHV-1, 8.12; against OXA-15 it was 7.11; at TEM-1 it was 8.92; against OXA-48, 8.11. Also, the MIC is more than 32 µg/mL in the assay on K. pneumoniae BAA-1898; more than 32 µg/mL with K. pneumoniae 6299; 16 µg/mL in the assay with E. coli 190317; 32 µg/mL in the assay with E. cloacae P99; more than 32 µg/mL in the assay with P. aeruginosa CIP107051.

As for `O=C(NCCN1CCOCC1)c1ccn(C2=CC3CN(C2)C(=O)N3OS(=O)(=O)O)n1` (stereo not drawn) [Example 72, [3-[3-(2-morpholinoethylcarbamoyl)pyrazol-1-yl]-7-oxo-1,6-diazabicyclo[3.2.1]oct-3-en-6-yl]hydrogen sulfate], the pIC50 was 7.37 on AmpC (P99); 8.15 against KPC-2; 7.07 at CMY-37 (setting [1]); 7.44 against OXA-11; 7.00 on OXA-1; 6.27 at AmpC (PAE). Further, the pIC50 is 9.24 on CTX-M-15; 8.17 against SHV-1; 7.37 at OXA-15; 9.04 on TEM-1; 8.60 on OXA-48. Also, the MIC in the assay on K. pneumoniae BAA-1898, in the assay with K. pneumoniae 6299, with E. coli 190317, in the assay with E. cloacae P99 and in the assay on P. aeruginosa CIP107051 was more than 32 µg/mL throughout.

Turning to `COc1cnn(C2=CC3CN(C2)C(=O)N3OS(=O)(=O)[O-])c1.[Na+]` (stereo not drawn) [Example 9, sodium [7-oxo-3-(4-methoxypyrazol-1-yl)-1,6-diazabicyclo[3.2.1]oct-3-en-6-yl]sulfate], the pIC50 against AmpC (P99) was 7.82; against KPC-2 it was 7.66; on CMY-37, 8.03; against OXA-11, 6.51; against OXA-1, 6.39; against AmpC (PAE) it was 7.54. Further, the pIC50 against CTX-M-15 is 9.30; against SHV-1, 8.72; against OXA-15, 7.26; at TEM-1, 9.39; on OXA-48, 8.15. For the same molecule, the MIC in the assay with K. pneumoniae BAA-1898, with K. pneumoniae 6299, in the assay on E. coli 190317, with E. cloacae P99 and in the assay on P. aeruginosa CIP107051 was more than 32 µg/mL throughout.

In the case of `O=C(N[C@@H]1CCNC1)c1ccn(C2=CC3CN(C2)C(=O)N3OS(=O)(=O)O)n1` (stereo partly drawn) [Example 83, [7-oxo-3-[3-[[(3R)-pyrrolidin-3-yl]carbamoyl]pyrazol-1-yl]-1,6-diazabicyclo[3.2.1]oct-3-en-6-yl]hydrogen sulfate], the pIC50 against AmpC (P99) is 7.62; against KPC-2, 8.10; on CMY-37 (setting [1]), 7.20; on OXA-11 it was 7.62; on OXA-1 it was 7.43; at AmpC (PAE), 6.64. The pIC50 against CTX-M-15 is 9.19; against SHV-1 it was 8.42; at OXA-15, 7.49; on TEM-1, 9.57; against OXA-48, 8.49. Moreover, the MIC in the assay on K. pneumoniae BAA-1898 was 8 µg/mL; in the assay with K. pneumoniae 6299 it was 32 µg/mL; in the assay on E. coli 190317, 2 µg/mL; in the assay on E. cloacae P99, 8 µg/mL; in the assay with P. aeruginosa CIP107051 it was more than 32 µg/mL.

Regarding `O=C1N2CC(n3cc(CNCCO)nn3)=CC(C2)N1OS(=O)(=O)O` (stereo not drawn) [Example 67, [3-(4-(2-(methylamino)ethanol)triazol-1-yl)-7-oxo-1,6-diazabicyclo[3.2.1]oct-3-en-6-yl]hydrogen sulfate], the pIC50 at AmpC (P99) is 7.42; against KPC-2, 7.70; at CMY-37 (setting [1]), 7.00; against OXA-11 it was 6.60; on OXA-1, 6.57; against AmpC (PAE), 6.14. For the same molecule, the pIC50 against CTX-M-15 is 8.89; against SHV-1, 8.08; against OXA-15, 7.74; on TEM-1 it was 8.92; against OXA-48, 8.80. Also, the MIC with K. pneumoniae BAA-1898 is more than 32 µg/mL; in the assay with K. pneumoniae 6299, more than 32 µg/mL; in the assay with E. coli 190317, 2 µg/mL; with E. cloacae P99, 4 µg/mL; with P. aeruginosa CIP107051, more than 32 µg/mL.

Take `O=C1N2CC(n3cc(C(F)(F)F)cn3)=CC(C2)N1OS(=O)(=O)[O-].[Na+]` (stereo not drawn) [Example 22, sodium [7-oxo-3-[4-(trifluoromethyl)pyrazol-1-yl]-1,6-diazabicyclo[3.2.1]oct-3-en-6-yl]sulfate]: the pIC50 against AmpC (P99) is 7.77; on KPC-2, 8.52; on CMY-37 it was 7.92; against OXA-11, 6.66; against OXA-1, 6.74; at AmpC (PAE), 7.11. Besides, the pIC50 on CTX-M-15 is 9.26; at SHV-1, 8.96; against OXA-15, 8.04; at TEM-1, 9.68; against OXA-48, 8.34. For the same molecule, the MIC with K. pneumoniae BAA-1898, in the assay on K. pneumoniae 6299, in the assay on E. coli 190317, in the assay with E. cloacae P99 and in the assay on P. aeruginosa CIP107051 was more than 32 µg/mL each time.

Regarding `CC(=O)c1ccn(C2=CC3CN(C2)C(=O)N3OS(=O)(=O)[O-])n1.[Na+]` (stereo not drawn) [Example 28, sodium (7-oxo-3-(3-acetylpyrazol-1-yl)-1,6-diazabicyclo[3.2.1]oct-3-en-6-yl) sulfate], the pIC50 at AmpC (P99) is 8.00; against KPC-2, 8.32; on CMY-37, 7.43; on OXA-11, 7.54; against OXA-1 it was 7.19; against AmpC (PAE), 6.70. Moreover, the pIC50 against CTX-M-15 was 9.30; on SHV-1, 8.66; against OXA-15, 7.52; on TEM-1 it was 9.43; against OXA-48 it was 8.42. For the same molecule, the MIC with K. pneumoniae BAA-1898 is more than 32 µg/mL; in the assay on K. pneumoniae 6299, more than 32 µg/mL; in the assay with E. coli 190317, 16 µg/mL; with E. cloacae P99, more than 32 µg/mL; in the assay on P. aeruginosa CIP107051, more than 32 µg/mL.

Take `CNCc1cn(C2=CC3CN(C2)C(=O)N3OS(=O)(=O)O)nn1` (stereo not drawn) [Example 60, [3-[4-(methylaminomethyl)triazol-1-yl]-7-oxo-1,6-diazabicyclo[3.2.1]oct-3-en-6-yl]hydrogen sulfate]: the negative logarithm of the IC50 (pIC50) against AmpC (P99) was 7.57; against KPC-2, 7.85; on CMY-37 (setting [1]), 7.17; against OXA-11 it was 6.89; on OXA-1 it was 6.89; on AmpC (PAE), 6.48. Moreover, the pIC50 was 9.14 on CTX-M-15; 8.70 against SHV-1; 8.09 against OXA-15; 9.46 at TEM-1; 8.92 at OXA-48. Besides, the MIC was more than 32 µg/mL in the assay on K. pneumoniae BAA-1898; more than 32 µg/mL with K. pneumoniae 6299; 0.5 µg/mL with E. coli 190317; 1 µg/mL in the assay with E. cloacae P99; 32 µg/mL in the assay on P. aeruginosa CIP107051.

For `O=C1N2CC(n3nccc3CCO)=CC(C2)N1OS(=O)(=O)[O-].[Na+]` (stereo not drawn) [Example 68, sodium [3-[5-(2-hydroxyethyl)pyrazol-1-yl]-7-oxo-1,6-diazabicyclo[3.2.1]oct-3-en-6-yl]sulfate], the pIC50 was 6.77 against AmpC (P99); 6.52 on KPC-2; 6.89 on CMY-37; 5.41 on OXA-11; 5.92 against OXA-1; 6.37 at AmpC (PAE). In addition, the pIC50 at CTX-M-15 was 8.15; at SHV-1 it was 8.55; against OXA-15, 5.39; against TEM-1, 9.14; against OXA-48, 7.31. Moreover, the MIC in the assay with K. pneumoniae BAA-1898, in the assay with K. pneumoniae 6299, with E. coli 190317, in the assay with E. cloacae P99 and in the assay on P. aeruginosa CIP107051 was more than 32 µg/mL each time.

Values taken from patent US10722520B2, “Heterocyclic compounds and their use in preventing or treating bacterial infections” (MUTABILIS, priority 2016, dated 2020).
